As usually defined, the EC50 is the concentration at which the effect is half-maximal. Low values mean higher potency in that assay, high ones lower potency in that assay.

In one assay the test system is Sprague-Dawley rats. The assay is described as follows: Spinal Nerve Ligation (SNL) model of neuropathic pain, tactile allodynia. Conditions: about 30 mg/kg i.p., 30 minutes or more before testing. Format: in vivo, rat. The text has this:
Adult male Sprague-Dawley rats (250-300 g body weight, Charles River Laboratories, Portage, Mich.) were used. Animal handling and experimental protocols were approved by the Institutional Animal Care and Use Committee (IACUC) at Abbott Laboratories. For all surgical procedures, animals were maintained under isoflurane anesthesia (4-5% to induce, 1-3% to maintain), and the incision sites were sterilized using a 10% povidone-iodine solution prior to and after surgeries.
Tactile (mechanical) allodynia was measured using calibrated von Frey filaments (Stoelting, Wood Dale, Ill.) as described in Chaplan, S. R., F. W. Bach, J. M. Pogrel, J. M. Chung and T. L. Yaksh, 1994, Quantitative assessment of tactile allodynia in the rat paw, J. Neurosci. Methods, 53, 55. Rats were placed into inverted individual plastic containers (20×12.5×20 cm) on top of a suspended wire mesh grid, and acclimated to the test chambers for 20 minutes. The von Frey filaments were presented perpendicularly to the plantar surface of the selected hind paw, and then held in this position for approximately 8 sec with enough force to cause a slight bend in the filament. Positive responses included an abrupt withdrawal of the hind paw from the stimulus, or flinching behavior immediately following removal of the stimulus. A 50% withdrawal threshold was determined using an up-down procedure (Dixon, W. J., 1980, Efficient analysis of experimental observations, Ann. Rev. Pharmacol. Toxicol., 20, 441). […] Tactile allodynia thresholds were also assessed in several control groups, including naive, sham-operated, and saline infused animals as well as in the contralateral paws of nerve-injured rats. To evaluate the anti-nociceptive effects, animals were administered vehicle or test compound and tactile allodynia was assessed 30 minutes after i.p. administration.
A model of spinal nerve ligation-induced (SNL model) neuropathic pain as originally described by Kim and Chung (Kim, S. H. and J. M. Chung, 1992, Pain 50, 355) was used to test a compound of the present application The left L5 and L6 spinal nerves of the rat were isolated adjacent to the vertebral column and tightly ligated with a 5-0 silk suture distal to the DRG, and care taken to avoid injury of the L4 spinal nerve. The same procedure was performed on Sham rats, but without nerve ligation. All animals were allowed to recover for at least one week and not more than three weeks prior to assessment of tactile allodynia.
Compounds were injected (i.p) 30 minutes or more before testing.

A further assay has as its target T1, KCNQ 2/3 channels (Homo sapiens, UniProt O43525+O43526).
T1 construct: expressed in transfected cells; host or cells: HEK293
The assay is described as follows: KCNQ 2/3 channel activation, thallium flux FLIPR assay (BTC-AM dye). It is filed as cell-based. Conditions: for Emax: HEK293, maximum response relative to the response of 10 μM retigabine (set at 100%), read-out: % MAX; for EC50: HEK293 cells stably expressing human KCNQ2 and KCNQ3 subunits, thallium-induced fluorescence, 4 min compound incubation. Put shortly:
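HEK293 cells stably expressing human KCNQ2/KCNQ3 were loaded with BTC-AM (3 μg/mL, 2 h, RT) and preincubated with compound for 4 min in pH 7.3 gluconate buffer containing 0.1 mM ouabain. Flux was triggered by 6 mM TlNO3/10 mM K2SO4 and read for 3 min; EC50 came from summed responses over basal, with maximum relative to 10 μM retigabine (100%).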

As to `O=C(CC1CC2CCC1C2)Nn1nc(-c2ccc(C(F)(F)F)nc2)c2ccccc2c1=O` (racemic) [Example 43, (±)-2-[(exo)-bicyclo[2.2.1]hept-2-yl]-N-{1-oxo-4-[6-(trifluoromethyl)pyridin-3-yl]phthalazin-2(1H)-yl}acetamide], the “change in paw withdrawal latency versus vehicle” value (“change” for short) in the assay with Sprague-Dawley rats is “statistically significant change”. Further, the Emax at KCNQ 2/3 channels (HEK293 KCNQ2/KCNQ3 cells) is 149%. On KCNQ 2/3 channels, it took 143 nM to reach a half-maximal effect (EC50).

Take `O=C(CC1CC2CCC1C2)Nn1nc(-c2ccnc(C(F)(F)F)c2)c2ccccc2c1=O` (racemic) [Example 76, (±)-2-[(exo)-bicyclo[2.2.1]hept-2-yl]-N-{1-oxo-4-[2-(trifluoromethyl)pyridin-4-yl]phthalazin-2(1H)-yl}acetamide]: the “change” value with Sprague-Dawley rats is recorded as “statistically significant change”. The Emax on KCNQ 2/3 channels (HEK293 KCNQ2/KCNQ3 cells) stood at 127%. The same compound showed an EC50 at KCNQ 2/3 channels of 126 nM.

Take `CC(C)(C)OC(=O)NCc1nn(NC(=O)Cc2ccc(Cl)cc2)c(=O)c2ccccc12` [Example 41, tert-butyl[(3-{[(4-chlorophenyl)acetyl]amino}-4-oxo-3,4-dihydrophthalazin-1-yl)methyl]carbamate]: the “change” value with Sprague-Dawley rats is given as “statistically significant change”. In addition, at KCNQ 2/3 channels (HEK293 KCNQ2/KCNQ3 cells), the Emax stood at 90.3%. The response on KCNQ 2/3 channels was half-maximal at 975 nM (EC50).

On to `O=C(Cc1cc(F)cc(F)c1)Nn1nc(S(=O)(=O)c2ccccc2)c2ccccc2c1=O` [Example 68, 2-(3,5-difluorophenyl)-N-[1-oxo-4-(phenylsulfonyl)phthalazin-2(1H)-yl]acetamide], for which the “change” value in the assay on Sprague-Dawley rats was “statistically significant change”. Besides, the Emax on KCNQ 2/3 channels (HEK293 KCNQ2/KCNQ3 cells) came to 79.9%. The compound also showed an EC50 at KCNQ 2/3 channels of 69.9 nM.

For the compound `O=C(Cc1ccc(Cl)cc1)Nn1nc(S(=O)(=O)c2ccccc2)c2ccccc2c1=O` [Example 69, 2-(4-chlorophenyl)-N-[1-oxo-4-(phenylsulfonyl)phthalazin-2(1H)-yl]acetamide], the “change” value with Sprague-Dawley rats is on record as “statistically significant change”. Besides, on KCNQ 2/3 channels (HEK293 KCNQ2/KCNQ3 cells), the Emax turned out to be 118%. Also, the EC50 at KCNQ 2/3 channels came out at 40.9 nM.

Take `C[C@@H]1CN(c2nn(NC(=O)Cc3ccc(Cl)cc3)c(=O)c3ccccc23)C[C@H](C)O1` [Example 81, 2-(4-chlorophenyl)-N-{4-[cis-2,6-dimethylmorpholin-4-yl]-1-oxophthalazin-2(1H)-yl}acetamide]: the “change” value in the assay with Sprague-Dawley rats is on record as “statistically significant change”. Further, the Emax on KCNQ 2/3 channels (HEK293 KCNQ2/KCNQ3 cells) was 85.1%. This compound displayed an EC50 at KCNQ 2/3 channels of 663 nM.

Turning to `O=C(CC12CC3CC(CC1C3)C2)Nn1nc(-c2ccc(C(F)(F)F)nc2)c2ccccc2c1=O` [Example 211, 2-(hexahydro-2,5-methanopentalen-3a(1H)-yl)-N-{1-oxo-4-[6-(trifluoromethyl)pyridin-3-yl]phthalazin-2(1H)-yl}acetamide], the Emax on KCNQ 2/3 channels (HEK293 KCNQ2/KCNQ3 cells) was 137%. The compound also returned an EC50 at KCNQ 2/3 channels of 201 nM.

Take `O=C(Cc1cc(F)cc(F)c1)Nn1nc(SCc2ccccc2)c2ccccc2c1=O` [Example 212, N-[4-(benzylsulfanyl)-1-oxophthalazin-2(1H)-yl]-2-(3,5-difluorophenyl)acetamide]: at KCNQ 2/3 channels (HEK293 KCNQ2/KCNQ3 cells), the Emax was determined as 109%. On KCNQ 2/3 channels, the EC50 worked out at 152 nM.

`O=C(Cc1ccc(Cl)cc1)Nn1nc(SCc2ccccc2)c2ccccc2c1=O` [Example 213, N-[4-(benzylsulfanyl)-1-oxophthalazin-2(1H)-yl]-2-(4-chlorophenyl)acetamide]: at KCNQ 2/3 channels (HEK293 KCNQ2/KCNQ3 cells), the Emax worked out at 123%. On KCNQ 2/3 channels, the EC50 was 30.3 nM.

For `O=C(Cc1cc(F)cc(F)c1)Nn1nc(S(=O)(=O)Cc2ccccc2)c2ccccc2c1=O` [Example 215, N-[4-(benzylsulfonyl)-1-oxophthalazin-2(1H)-yl]-2-(3,5-difluorophenyl)acetamide], the Emax at KCNQ 2/3 channels (HEK293 KCNQ2/KCNQ3 cells) turned out to be 45%. The EC50 on KCNQ 2/3 channels worked out at 916 nM.

Take `O=C(Cc1ccc(Cl)cc1)Nn1nc(S(=O)(=O)Cc2ccccc2)c2ccccc2c1=O` [Example 216, N-[4-(benzylsulfonyl)-1-oxophthalazin-2(1H)-yl]-2-(4-chlorophenyl)acetamide]: the Emax on KCNQ 2/3 channels (HEK293 KCNQ2/KCNQ3 cells) was determined as 67.1%. Further, at KCNQ 2/3 channels, the response was half-maximal at 1840 nM (EC50).

Take `O=C(CC12CC3CC(CC1C3)C2)Nn1nc(S(=O)(=O)c2ccccc2)c2ccccc2c1=O` [Example 218, 2-(hexahydro-2,5-methanopentalen-3a(1H)-yl)-N-[1-oxo-4-(phenylsulfonyl)phthalazin-2(1H)-yl]acetamide]: the Emax at KCNQ 2/3 channels (HEK293 KCNQ2/KCNQ3 cells) came to 151%. On KCNQ 2/3 channels, this compound gave an EC50 of 58.3 nM.

On to `CCC1CN(c2nn(NC(=O)Cc3ccc(Cl)cc3)c(=O)c3ccccc23)CCO1` (stereo not drawn) [Example 221, 2-(4-chlorophenyl)-N-[4-(2-ethylmorpholin-4-yl)-1-oxophthalazin-2(1H)-yl]acetamide], for which the Emax at KCNQ 2/3 channels (HEK293 KCNQ2/KCNQ3 cells) came to 101%. The compound further registered an EC50 at KCNQ 2/3 channels of 320 nM.

As for `N#Cc1ccc(S(=O)(=O)c2nn(NC(=O)Cc3ccc(Cl)cc3)c(=O)c3ccccc23)cc1` [Example 222, 2-(4-chlorophenyl)-N-{4-[(4-cyanophenyl)sulfonyl]-1-oxophthalazin-2(1H)-yl}acetamide], the Emax at KCNQ 2/3 channels (HEK293 KCNQ2/KCNQ3 cells) came out at 90%. Moreover, at KCNQ 2/3 channels, a half-maximal effect (EC50) was put at 97.9 nM.

Take `N#Cc1ccc(S(=O)(=O)c2nn(NC(=O)Cc3cc(F)cc(F)c3)c(=O)c3ccccc23)cc1` [Example 223, N-{4-[(4-cyanophenyl)sulfonyl]-1-oxophthalazin-2(1H)-yl}-2-(3,5-difluorophenyl)acetamide]: the Emax at KCNQ 2/3 channels (HEK293 KCNQ2/KCNQ3 cells) worked out at 86.2%. Moreover, the EC50 on KCNQ 2/3 channels was found to be 149 nM.

`N#Cc1ccc(S(=O)(=O)c2nn(NC(=O)Cc3ccc(F)cc3)c(=O)c3ccccc23)cc1` [Example 224, N-{4-[(4-cyanophenyl)sulfonyl]-1-oxophthalazin-2(1H)-yl}-2-(4-fluorophenyl)acetamide]: the Emax at KCNQ 2/3 channels (HEK293 KCNQ2/KCNQ3 cells) was 75.2%. In addition, the EC50 on KCNQ 2/3 channels came to 155 nM.

For the compound `CC(C)(CC(=O)Nn1nc(S(=O)(=O)c2ccc(C#N)cc2)c2ccccc2c1=O)c1ccccc1` [Example 225, N-{4-[(4-cyanophenyl)sulfonyl]-1-oxophthalazin-2(1H)-yl}-3-methyl-3-phenylbutanamide], the Emax at KCNQ 2/3 channels (HEK293 KCNQ2/KCNQ3 cells) amounted to 37.3%. On KCNQ 2/3 channels, this compound displayed an EC50 of 146 nM.

Consider “(1R,2S,5R)-5-methyl-2-(propan-2-yl)cyclohexyl[(3-{[(4-chlorophenyl)acetyl]amino}-4-oxo-3,4-dihydrophthalazin-1-yl)methyl]carbamate [Example 180]”, for which a half-maximal effect on KCNQ 2/3 channels (EC50) was put at 1610 nM. The “% MAX” value at KCNQ 2/3 channels (maximum response relative to the response of 10 μM retigabine (set at 100%), HEK293 KCNQ2/KCNQ3 cells) is 57.6%.

For the origin of these results see patent US8859549B2, “Potassium channel modulators” (AbbVie, Inc., priority 2011, dated 2014).
